In US7572606B1 (Nereus Pharmaceuticals, Inc., priority 2005, dated 2009):
pEC50: −log10 of the molar value. Like-named read-outs stand apart in the source and are kept apart here.

Columns and labels:
[1] = system: PANC-1; assay: Cell growth inhibition, resazurin, 48 h; type: cell-based; conditions: Homo sapiens; PANC-1, 48 h drug exposure
[2] = system: LeTx-induced cytotoxicity of RAW264.7 cells; assay: cells; type: cell-based, murine
[3] = system: p21 and p27 in HEK293 cells and HEK293 NF-κB/Luciferase reporter clone; assay: Western blot of cell cycle regulatory proteins; type: cell-based, human; conditions: various concentrations, preliminary results
From the text: The ubiquitin-proteasome pathway is an essential proteolytic system involved in cell cycle control by regulating the degradation of cyclins and cyclin-dependent kinase (Cdk) inhibitors such as p21 and p27. Pagano, et al., Science 269:682 (1995), Kisselev, et al., Chem Biol 8:739 (2001), King, et al., Science 274:1652 (1996). Furthermore, p21 and p27 protein levels are increased in the presence of proteasome inhibitors. Fukuchi, et al., Biochim Biophys Acta 1451:206 (1999), Takeuchi, et al., Jpn J Cancer Res 93:774 (2002).
The Western blots presented in FIG. 33 were reprobed using antibodies against p21 and p27 to determine the endogenous level of each protein and anti-Tubulin antibody was used to confirm equal loading of protein.

[4] = system: A549/ATCC; assay: NCI 60 cell line screen, sulforhodamine B, 48 h; type: cell-based, human; conditions: Non-Small Cell Lung Cancer
Experimental: (§1) A detailed description of the screening procedure can be found at hypertext transfer protocol (http://) “dtp.nci.nih.gov/branches/btb/ivclsp.html.”
(§2) In brief, each of the 60 human tumor cell lines were grown in RPMI 1640 medium, supplemented with 5% fetal bovine serum and 2 mM L-glutamine. Cells were plated at their appropriate density in 96-well microtiter plates and incubated at 37° C., 5% CO2, 95% air and 100% relative humidity. […] Cells were incubated for an additional 48 hours and a sulforhodamine B protein assay was used to estimate cell viability or growth.

[5] = system: NCI-H460; assay: NCI 60 cell line screen, sulforhodamine B, 48 h; type: cell-based, human; conditions: NCI-H460, Non-Small Cell Lung Cancer
Experimental: as §1, §2

[6] = system: SF-295; assay: NCI 60 cell line screen, sulforhodamine B, 48 h; type: cell-based, human; conditions: SF-295, CNS Cancer
Experimental: as §1, §2

[7] = system: tGROV1; assay: NCI 60 cell line screen, sulforhodamine B, 48 h; type: cell-based, human; conditions: tGROV1, Ovarian Cancer
Experimental: as §1, §2

[8] = system: MALME-3M; assay: NCI 60 cell line screen, sulforhodamine B, 48 h; type: cell-based, human; conditions: Melanoma
Experimental: as §1, §2

[9] = system: MCF7; assay: NCI 60 cell line screen, sulforhodamine B, 48 h; type: cell-based, human; conditions: MCF7, Breast Cancer
Experimental: as §1, §2

[10] = system: CCRF-CEM; assay: NCI 60 cell line screen, sulforhodamine B, 48 h; type: cell-based, human; conditions: Leukemia
Experimental: as §1, §2

[11] = system: MDA-MB-435; assay: NCI 60 cell line screen, sulforhodamine B, 48 h; type: cell-based, human; conditions: for CC50: Homo sapiens
Experimental: as §1, §2

[12] = system: OVCAR-8; assay: NCI 60 cell line screen, sulforhodamine B, 48 h; type: cell-based, human; conditions: OVCAR-8, Ovarian Cancer
Experimental: as §1, §2

[13] = system: U251; assay: NCI 60 cell line screen, sulforhodamine B, 48 h; type: cell-based, human; conditions: U251, CNS Cancer
Experimental: as §1, §2

[14] = system: UO-11; assay: NCI 60 cell line screen, sulforhodamine B, 48 h; type: cell-based, human
Experimental: as §1, §2

[15] = system: M14; assay: NCI 60 cell line screen, sulforhodamine B, 48 h; type: cell-based, human
Experimental: as §1, §2

[16] = system: HCC-2998; assay: NCI 60 cell line screen, sulforhodamine B, 48 h; type: cell-based, human
Experimental: as §1, §2

[17] = system: MOLT-4; assay: NCI 60 cell line screen, sulforhodamine B, 48 h; type: cell-based, human
Experimental: as §1, §2

[18] = system: HDP-92; assay: NCI 60 cell line screen, sulforhodamine B, 48 h; type: cell-based, human
Experimental: as §1, §2

[19] = system: NCI-H322M; assay: NCI 60 cell line screen, sulforhodamine B, 48 h; type: cell-based, human; conditions: Non-Small Cell Lung Cancer
Experimental: as §1, §2

[20] = system: SK-OV-3; assay: NCI 60 cell line screen, sulforhodamine B, 48 h; type: cell-based, human; conditions: SK-OV-3, Ovarian Cancer
Experimental: as §1, §2

[21] = system: SK-MEL-21; assay: NCI 60 cell line screen, sulforhodamine B, 48 h; type: cell-based, human; conditions: for CC50: Homo sapiens
Experimental: as §1, §2

[22] = system: SF-268; assay: NCI 60 cell line screen, sulforhodamine B, 48 h; type: cell-based, human; conditions: SF-268, CNS Cancer
Experimental: as §1, §2

[23] = system: NCI-H236; assay: NCI 60 cell line screen, sulforhodamine B, 48 h; type: cell-based, human; conditions: NCI-H236, Non-Small Cell Lung Cancer
Experimental: as §1, §2

[24] = system: KM12; assay: NCI 60 cell line screen, sulforhodamine B, 48 h; type: cell-based, human; conditions: KM12, Colon Cancer
Experimental: as §1, §2

[25] = system: IκBα in HEK293 cells and NF-κB/Luc 293 reporter clone; assay: Western blot of phosphorylated and total IκBα; type: cell-based, human; conditions: 50 and 500 nM, 1 hour pretreatment, TNF-α 30 minutes
Experimental: Endogenous protein levels were assessed in both HEK293 cells and the NF-κB/Luc 293 reporter clone.
Antibodies against total and phosphorylated forms of IκBα were used to determine the endogenous level of each protein and anti-Tubulin antibody was used to confirm equal loading of protein.

[26] = system: MM.1R and Dox-40 cell lines, patient-derived multiple myeloma cells
[27] = Homo sapiens, 60 cell, read-out: Log10 LC50 (converted)
[28] = HDP-92, Non-Small Cell Lung Cancer

In the case of C[C@@]12OC(=O)[C@]1([C@@H](O)[C@@H]1C=CCCC1)NC(=O)[C@@H]2CCCl [Formula II-16, Salinosporamide A], the pEC50 [1] was 7.22, the pEC50 [2] was 8.44 and the cell-viability [2] was 82%. For the same molecule, the “increase in the viability of LeTx-treated cells compared to LeTx treatment alone” value [2] was 10 fold, the pEC50 ([2]; Mus musculus, RAW264.7) was > 8.40 and the “p21 and p27 protein levels” value [3] was “p21 and p27 protein levels were elevated”. For the same molecule, the “Log10 G150” value [4] was <-8.00 Molar, the “Log10 TGI” value [4] was -4.70 Molar and the “Log10 G150” value [5] was <-8.00 Molar. The “Log10 TGI” value [5] was -6.97 Molar, the “Log10 G150” value [6] was <-8.00 Molar and the “Log10 TGI” value [6] was <-8.00 Molar. For the same molecule, the “Log10 G150” value [7] was <-8.00 Molar, the “Log10 TGI” value [7] was -5.18 Molar and the “Log10 G150” value [8] was <-8.00 Molar. The “Log10 TGI” value [8] was <-8.00 Molar, the “Log10 G150” value [9] was <-8.00 Molar and the “Log10 TGI” value [9] was >-4.00 Molar. For the same molecule, the “Log10 G150” value [10] was <-8.00 Molar, the “Log10 TGI” value [10] was <-8.00 Molar and the CC50 ([11]; MDA-MB-435, read-out: LC50) was < 10 nM. For the same molecule, the CC50 ([11]; MDA-MB-435, read-out: Log10 LC50 (converted)) was < 10 nM, the “Log10 G150” value ([11]; MDA-MB-435, Breast Cancer) was <-8.00 Molar and the “Log10 TGI” value ([11]; MDA-MB-435, Breast Cancer) was <-8.00 Molar. For the same molecule, the “Log10 G150” value [12] was <-8.00 Molar, the “Log10 TGI” value [12] was -7.70 Molar and the “Log10 G150” value [13] was <-8.00 Molar. The “Log10 TGI” value [13] was -5.99 Molar, the CC50 [14, 27] was 25700 nM and the “Log10 G150” value ([14]; UO-11, Renal Cancer) was <-8.00 Molar. The “Log10 TGI” value ([14]; UO-11, Renal Cancer) was -5.83 Molar, the CC50 ([15]; Homo sapiens, M14, read-out: Log10 LC50 (converted)) was 186 nM and the “Log10 G150” value ([15]; M14, Melanoma) was <-8.00 Molar. For the same molecule, the “Log10 TGI” value ([15]; M14, Melanoma) was -7.94 Molar, the “Log10 G150” value ([16]; HCC-2998, Colon Cancer) was <-8.00 Molar and the “Log10 TGI” value ([16]; HCC-2998, Colon Cancer) was <-8.00 Molar. The CC50 ([16]; Homo sapiens, HCC 2998, read-out: Log10 LC50 (converted)) was 17.8 nM, the CC50 ([17]; Homo sapiens, MOLT-4, read-out: Log10 LC50 (converted)) was > 100000 nM and the “Log10 G150” value ([17]; MOLT-4, Leukemia) was <-8.00 Molar. For the same molecule, the “Log10 TGI” value ([17]; MOLT-4, Leukemia) was <-8.00 Molar, the “Log10 G150” value [18, 28] was <-8.00 Molar and the “Log10 TGI” value [18, 28] was -7.77 Molar. For the same molecule, the CC50 [18, 27] was 4370 nM, the “Log10 G150” value [19] was <-8.00 Molar and the “Log10 TGI” value [19] was -5.48 Molar. The “Log10 G150” value [20] was <-8.00 Molar, the “Log10 TGI” value [20] was <-8.00 Molar and the CC50 ([21]; 60 cell, read-out: Log10 LC50 (converted)) was < 10 nM. The CC50 ([21]; SK-MEL-28, read-out: LC50) was < 10 nM, the “Log10 G150” value ([21]; SK-MEL-21, Melanoma) was <-8.00 Molar and the “Log10 TGI” value ([21]; SK-MEL-21, Melanoma) was <-8.00 Molar. For the same molecule, the “Log10 G150” value [22] was <-8.00 Molar, the “Log10 TGI” value [22] was -6.92 Molar and the “Log10 G150” value [23] was <-8.00 Molar. For the same molecule, the “Log10 TGI” value [23] was <-8.00 Molar, the “Log10 G150” value [24] was <-8.00 Molar and the “Log10 TGI” value [24] was -6.00 Molar. The “total IκBα and phospho-IκBα level” value [25] was “reduced the degradation of total IκBα but also retained the phospho-IκBα level” and the “activity against drug resistant multiple myeloma” value [26] was “active against MM.1R and Doxorubicin-resistant Dox-40 cell lines”.
